Results on one molecule are retold here after ChEMBL document CHEMBL3797052 (Eur J Med Chem, 2016).

Holding throughout (assay type): functional
The nature of assay [1]: Antiproliferative activity against human RXF393 cells assessed as growth inhibition after 48 hrs by sulforhodamine B assay. The conditions noted are these: RXF 393, 48 h. A general note: In SRB staining, fixed cells bind dye roughly in proportion to their protein.
The next assay deals with SK-MEL-2. Briefly: Antiproliferative activity against human SK-MEL-2 cells assessed as growth inhibition after 48 hrs by sulforhodamine B assay. The conditions noted are these: SK-MEL-2, 48 h.
The subject of another assay is Malme-3M. The assay is described as follows: Antiproliferative activity against human MALME-3M cells assessed as growth inhibition after 48 hrs by sulforhodamine B assay.
Assay [2] in a line: Antiproliferative activity against human LOXIMVI cells assessed as growth inhibition after 48 hrs by sulforhodamine B assay. To be noted: LOX IMVI.
The next assay relates to U-251. Briefly: Antiproliferative activity against human U251 cells assessed as growth inhibition after 48 hrs by sulforhodamine B assay. To be noted: U-251, 48 h.
Assay [3] is described as follows: Antiproliferative activity against human MOLT4 cells assessed as growth inhibition after 48 hrs by sulforhodamine B assay. The conditions noted are these: MOLT-4, 48 h.
A further assay concerns K562. The assay is described as follows: Antiproliferative activity against human K562 cells assessed as growth inhibition after 48 hrs by sulforhodamine B assay. To be noted: K562, 48 h.
Setting [4] is: read-out: LC50 (the source's name).

For `CNC(=O)c1cc(Oc2ccc(NC(=O)Nc3ccc(Cl)c(C(F)(F)F)c3)cc2)ccn1` [SORAFENIB], the GI50 in assay [1] worked out at 3.16 µM; with SK-MEL-2, 2 µM; in the assay on Malme-3M, 2 µM; in the assay with U-251 it was 2 µM; in assay [3] it was 3.16 µM; in the assay with K562, 3.16 µM. Besides, the total growth inhibition concentration (TGI) in assay [1] amounted to 10 µM; in the assay on SK-MEL-2, 3.16 µM; in the assay on Malme-3M, 6.31 µM; in assay [2], 3.16 µM; in the assay with U-251, 6.31 µM; in assay [3], 100 µM. In the assay on K562, the total growth inhibition concentration (TGI) is 100 µM. Moreover, the CC50 in assay [1] (setting [4]) worked out at 39.8 µM; in the assay with SK-MEL-2 (setting [4]), 6.31 µM; in the assay on Malme-3M (setting [4]), 63.1 µM; in assay [2] (setting [4]) it was 7.94 µM; in the assay with K562 (setting [4]), 100 µM.

As a reminder, the GI50 is the concentration giving 50% growth inhibition. As usually defined, the TGI is the concentration at which net growth stops.
